The values below come from patent publication US9796714B2, “Calcium channel agonists” (University of Pittsburgh—Of the Commonwealth System of …, priority 2013, dated 2017).

Each structure is given as a SMILES string. pEC50, pIC50: −log10 of the molar value. Like-named read-outs stand apart in the source and are kept apart here. Where only a bound is given, the exact number is not on record here.

Test [1] has as its target T1, L-type (Cav 1.3) channels (Rattus norvegicus, UniProt P27732).
T1 construct: host or cells: tsA-201
Nature of the test: L-type Ca2+ channel agonist activity, whole-cell perforated patch clamp in tsA-201 cells. It is filed as cell-based. For orientation: The patch-clamp technique gives a direct electrical read-out from membranes.
Experimental: For subsequent evaluation of effects on N-, P/Q-, or L-type channels, tsA-201 cells were transiently transfected with Cav2.2, Cav2.1, or Cav1.3, in combination with Cavβ3 and Cavα2β1 (Addgene, Cambridge Mass.) using FuGENE 6 (Life Technologies, Grand Island, N.Y.). All cells were maintained in DMEM supplemented with 10% fetal bovine serum.
Whole-cell patch clamp recordings of calcium current. […] Briefly, the pipette solution consisted of 70 nM Cs2SO4, 60 mM CsCl, 1 mM MgCl2, 10 mM 4-(2-hydroxyethyl)-1-piperazineethanesulfonic acid (HEPES) at pH 7.4. […] Patch pipettes were fabricated from borosilicate glass and pulled to a resistance of about 1 MΩ. Before each experiment, a stock solution consisting of 3 mg amphotericin-B dissolved into 50 μL anhydrous DMSO was made. […] Capacitive currents and passive membrane responses to voltage commands were subtracted from the data. Currents were amplified by an Axopatch 200B amplifier, filtered at 5 KHz, and digitized at 10 KHz for subsequent analysis using pClamp software (Axon Instruments/Molecular Devices; Sunnyvale, Calif.). […] To measure effects on calcium channel tail currents, the tail current integral was measured before and after application of a derivative, with the integral of each trace being normalized to its peak. All experiments were carried out at room temperature (22° C.). […]

Test [2] concerns the target T2, mitogen-activated protein kinase (MAPK1(h)) (Homo sapiens, UniProt P27361).
T2 construct: purchased EMD Millipore KinaseProfiler service (Millipore UK Ltd.)
The test can be described thus: Kinase inhibitory activity (EMD Millipore KinaseProfiler), MAPK1. It is filed as biochemical. As to conditions: 20 μM highest concentration used; read-out: MAPK EC50/IC50 affinities. As to the method: Kinase inhibitory activity. Kinase inhibitory activities were determined using the EMD Millipore KinaseProfiler™ service (Millipore UK Ltd.). Each compound's kinase inhibitory activity was tested at three different concentrations (0.2 μM, 2 μM, and 20 μM) against five different kinases: Cdk1 cyclinB(h), cdk2 cyclinA(h), cdk5 p35(h), mitogen-activated protein kinase (MAPK1(h)) and myosin light-chain kinase (MLCK(h)).
Statistical Analysis. […] For the dose-response analyses on Ca^2+ current, each concentration of the four different compounds was tested in 3-6 cells. […] All EC50 and IC50 values and their respective errors were determined by performing 100 iterations of a logistic function curve fit.

Test [3] relates to LEMS passive transfer mouse NMJs. Nature of the test: Intracellular recordings at LEMS passive transfer mouse NMJs, ex vivo ETA nerve-muscle preparation (Example 3). As to the method:
LEMS passive transfer. To test GV-58 in a LEMS model NMJ, an established LEMS passive transfer mouse model was utilized. To perform the passive transfer of LEMS, mice were injected with the serum of patients diagnosed with LEMS. […] Each serum sample was tested for the presence of voltage-gated Ca^2+ channel antibodies using a Ca^2+ channel antibody radioimmune assay (Kronus RIA kit, Star, Id.). Control serum was obtained from the University of Pittsburgh Medical Center blood bank. […]; 25-32 g; Charles River Laboratories) were divided into two groups: one group that received LEMS serum, and a control group that received control serum.
Intracellular recordings at mouse NMJs. […] A thin upper arm muscle, the epitrochleoanconeus (ETA), was chosen for these recordings. […] […]. A train of 10 EPPs was also collected in each muscle fiber using an inter-stimulus interval of 20 msec. To analyze the data, both the amplitudes and the areas under the waveforms (integral) were determined after correcting each digitized point in each trace for non-linear summation. Data were collected and analyzed using an Axoclamp 900A and the pClamp 10 suite of programs (Molecular Devices, Sunnyvale, Calif.).
Statistical Analysis. […] For the dose-response analyses on Ca^2+ current, each concentration of the four different compounds was tested in 3-6 cells. […]. All EC50 and IC50 values and their respective errors were determined by performing 100 iterations of a logistic function curve fit.

T1 sequence (P27732 whole entry): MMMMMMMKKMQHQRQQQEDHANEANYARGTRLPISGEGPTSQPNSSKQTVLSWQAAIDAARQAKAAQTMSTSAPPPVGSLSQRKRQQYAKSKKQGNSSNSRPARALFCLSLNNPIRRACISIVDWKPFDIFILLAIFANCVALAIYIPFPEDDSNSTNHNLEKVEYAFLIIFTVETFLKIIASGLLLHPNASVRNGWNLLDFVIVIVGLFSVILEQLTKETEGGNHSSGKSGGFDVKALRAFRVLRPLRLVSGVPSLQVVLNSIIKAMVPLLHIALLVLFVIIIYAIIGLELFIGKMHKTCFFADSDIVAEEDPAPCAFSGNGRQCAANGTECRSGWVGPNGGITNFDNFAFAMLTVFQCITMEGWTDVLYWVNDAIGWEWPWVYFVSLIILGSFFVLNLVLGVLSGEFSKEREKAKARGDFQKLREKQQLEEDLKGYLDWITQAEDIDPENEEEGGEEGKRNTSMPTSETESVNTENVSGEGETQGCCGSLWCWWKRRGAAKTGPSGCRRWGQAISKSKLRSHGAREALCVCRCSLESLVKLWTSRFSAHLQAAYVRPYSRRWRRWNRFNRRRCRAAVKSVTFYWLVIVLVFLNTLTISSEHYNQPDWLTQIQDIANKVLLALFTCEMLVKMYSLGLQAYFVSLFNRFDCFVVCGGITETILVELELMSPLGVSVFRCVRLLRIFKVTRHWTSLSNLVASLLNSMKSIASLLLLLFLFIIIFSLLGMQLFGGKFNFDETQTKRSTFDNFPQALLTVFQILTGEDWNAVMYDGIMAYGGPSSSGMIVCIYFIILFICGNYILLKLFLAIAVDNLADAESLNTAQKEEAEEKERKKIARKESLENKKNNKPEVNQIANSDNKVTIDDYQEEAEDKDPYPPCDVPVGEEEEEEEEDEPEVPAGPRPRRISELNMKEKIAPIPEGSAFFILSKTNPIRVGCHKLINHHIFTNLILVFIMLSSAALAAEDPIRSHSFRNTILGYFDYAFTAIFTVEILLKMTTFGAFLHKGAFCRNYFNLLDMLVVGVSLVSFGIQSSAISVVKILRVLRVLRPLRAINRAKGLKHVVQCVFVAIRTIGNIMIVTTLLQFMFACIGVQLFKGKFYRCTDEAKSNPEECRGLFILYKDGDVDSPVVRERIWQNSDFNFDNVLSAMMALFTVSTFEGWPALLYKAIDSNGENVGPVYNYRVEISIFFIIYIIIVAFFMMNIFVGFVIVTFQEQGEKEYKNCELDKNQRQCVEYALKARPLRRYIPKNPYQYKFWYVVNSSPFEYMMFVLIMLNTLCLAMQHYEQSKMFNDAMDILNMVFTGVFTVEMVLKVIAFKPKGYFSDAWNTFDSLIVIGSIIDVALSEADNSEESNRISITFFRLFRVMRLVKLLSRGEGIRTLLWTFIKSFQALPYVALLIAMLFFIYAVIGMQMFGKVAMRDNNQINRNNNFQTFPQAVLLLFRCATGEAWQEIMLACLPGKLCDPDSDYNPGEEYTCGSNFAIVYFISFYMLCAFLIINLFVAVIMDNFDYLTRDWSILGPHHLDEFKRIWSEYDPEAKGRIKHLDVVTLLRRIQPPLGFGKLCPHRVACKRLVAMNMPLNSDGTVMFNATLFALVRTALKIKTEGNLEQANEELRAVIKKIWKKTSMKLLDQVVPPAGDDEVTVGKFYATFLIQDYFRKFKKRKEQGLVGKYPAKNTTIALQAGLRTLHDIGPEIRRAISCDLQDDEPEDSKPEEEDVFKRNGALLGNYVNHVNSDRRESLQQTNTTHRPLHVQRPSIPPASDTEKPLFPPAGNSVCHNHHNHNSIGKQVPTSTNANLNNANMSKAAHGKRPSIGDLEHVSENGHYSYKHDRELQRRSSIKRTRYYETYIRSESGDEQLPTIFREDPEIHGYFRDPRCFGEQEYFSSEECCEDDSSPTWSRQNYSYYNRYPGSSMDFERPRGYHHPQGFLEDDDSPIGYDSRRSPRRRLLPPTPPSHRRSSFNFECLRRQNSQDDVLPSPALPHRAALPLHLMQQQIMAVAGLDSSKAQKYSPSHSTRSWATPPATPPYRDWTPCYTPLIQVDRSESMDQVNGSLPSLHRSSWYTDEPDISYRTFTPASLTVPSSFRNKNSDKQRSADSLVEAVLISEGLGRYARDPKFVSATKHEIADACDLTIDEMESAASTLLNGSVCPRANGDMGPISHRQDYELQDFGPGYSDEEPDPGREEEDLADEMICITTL
T2 sequence (P27361 whole entry): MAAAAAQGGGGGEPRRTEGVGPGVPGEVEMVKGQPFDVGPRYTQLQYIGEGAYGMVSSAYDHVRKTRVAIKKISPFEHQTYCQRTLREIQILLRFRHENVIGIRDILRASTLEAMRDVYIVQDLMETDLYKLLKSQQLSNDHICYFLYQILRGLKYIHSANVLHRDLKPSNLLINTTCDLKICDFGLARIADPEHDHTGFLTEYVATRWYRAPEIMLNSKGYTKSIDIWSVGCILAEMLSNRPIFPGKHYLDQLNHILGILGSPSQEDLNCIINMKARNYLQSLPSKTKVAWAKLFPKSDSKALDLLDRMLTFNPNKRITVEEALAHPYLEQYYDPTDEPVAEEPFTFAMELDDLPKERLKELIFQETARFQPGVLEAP

For `CCCn1cnc2c(NCc3ccc(C)s3)nc(N[C@H](CC)CO)nc21` [Compound 13x, (2R)-2-[(6-{[(5-Methylthiophen-2-yl)methyl]amino}-9-propyl-9H-purin-2-yl)amino]butan-1-ol], in test [1] (Cav 1.3, no measureable agonist effect up to 100 μM, read-out: L-type EC50/IC50 affinities), the pEC50 was less than 4.00. Besides, the pEC50 in test [1] (b265, read-out: agonist effects on L-type calcium channels EC50) is less than 4.00. In addition, the pIC50 in test [2] is less than 4.70. Moreover, the “increase of the strength of neuromuscular transmission” value in test [3] is recorded as “about 50%”. In test [3] (50 μM), the “EPP 90% to 10% decay time” value is 6.79 ± 0.11 ms; the “EPP full width at half maximum (FWHM)” value stood at 3.90 ± 0.07 ms; the “final EPP in 50 Hz train of 10 stimuli, normalized to the first EPP” value was “about 94%”; the mEPP frequency is 10.45 ± 0.64 s⁻¹. Besides, in test [3] (50 μM vs vehicle), the “increase of quantal content when measuring area” value is reported as roughly 92% and the “increase of quantal content when measuring peak” value is reported as roughly 62%. The “mean change in mEPP amplitude” value in test [3] (50 μM, relative to vehicle) amounted to 1.00±0.02. The compound also gave an EPP amplitude in test [3] (aBC2 serum NMJs, 30-minute incubation in 50 μM) of 19.44±0.98 mV.
